Assays:
Format in all cases: in vivo
[1] = test system: redroot pigweed (Amaranthus retroflexus, AMARE); assay: Pre-emerge test, greenhouse herbicide activity screening; conditions: rated 14 days after application, 0 = no damage, 100 = complete death
Procedure, shortened: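 Compounds in acetone were track-sprayed at 187 l/ha, 15–1000 g ai/ha, onto sandy loam pots. Pre-emerge seeds were sown one day before spraying, with surface watering afterwards. Post-emerge plants were at the 2–3 leaf stage and sprayed with 0.25% v/v non-ionic surfactant. Injury was rated 0–100 at 14 days.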

[2] = test system: barnyardgrass (Echinochloa crus-galli, ECHCG); assay: as above; conditions: rated 14 days after application, 0 = no damage, 100 = complete death
Procedure, shortened: (§1)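 Rating: 0–100 visual injury, 14 DAA. Application: acetone, 187 l/ha, 15–1000 g ai/ha, flat-fan track sprayer with nozzle 40–45 cm above soil or canopy. Post-emerge runs used 0.25% v/v surfactant on 2–3 leaf plants.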

[3] = test system: common ragweed (Ambrosia artemisizfolia L., AMBEL); assay: as above; conditions: rated 14 days after application, 0 = no damage, 100 = complete death
Procedure, shortened: as §1

[4] = test system: green foxtail (Setaria viridis, SETVI); assay: as above; conditions: rated 14 days after application, 0 = no damage, 100 = complete death
Procedure, shortened: as §1

[5] = test system: ivyleaf morningglory (Ipomoea hederacea, IPOHE); assay: as above; conditions: rated 14 days after application, 0 = no damage, 100 = complete death
Procedure, shortened: as §1

[6] = test system: johnsongrass (Sorghum halepense, SORHA); assay: as above; conditions: rated 14 days after application, 0 = no damage, 100 = complete death
Procedure, shortened: as §1

[7] = test system: lambsquarters (Chenopodium album, CHEAL); assay: as above; conditions: rated 14 days after application, 0 = no damage, 100 = complete death
Procedure, shortened: as §1

[8] = test system: large crabgrass (Digitaria sanguinalis, DIGSA); assay: as above; conditions: rated 14 days after application, 0 = no damage, 100 = complete death
Procedure, shortened: as §1

[9] = test system: sicklepod (Cassia obtusifolia, CASOB); assay: as above; conditions: rated 14 days after application, 0 = no damage, 100 = complete death
Procedure, shortened: as §1

[10] = test system: velvetleaf (Abutilon theophrasti, ABUTH); assay: as above; conditions: rated 14 days after application, 0 = no damage, 100 = complete death
Procedure, shortened: as §1

[11] = test system: field corn (Zea mays L., var. Dekalb 535, CORN); assay: Pre-emerge test, crop safety; conditions: rated 14 days after application, 0 = no damage, 100 = complete death
Procedure, shortened: (§2)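 Compounds in acetone were track-sprayed at 15-1000 g ai/ha (187 l/ha) on sandy loam pots: pre-emerge one day after seeding, post-emerge at 2-3 leaf stage with 0.25% v/v non-ionic surfactant. Phytotoxicity was rated 14 days later on a 0 (no damage) to 100 (complete death) scale.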

[12] = test system: upland rice (Oryza sp., var. Tebonnet, RICE); assay: Pre-emerge test, crop safety; conditions: rated 14 days after application, 0 = no damage, 100 = complete death
Procedure, shortened: as §2

[13] = test system: barnyardgrass (Echinochloa crus-galli, ECHCG); assay: Post-emerge test, greenhouse herbicide activity screening; conditions: post-emerge, 14 days after application, rating scale 0-100
Procedure, shortened: (§3)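 Each test used a mechanized track sprayer delivering 187 l/ha of acetone solution at 15–1000 g ai/ha. Post-emerge foliage at 2–3 leaves was treated with added 0.25% v/v non-ionic surfactant and bottom-watered only. Injury was assessed on day 14, where 100 means total kill.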

[14] = test system: common ragweed (Ambrosia artemisizfolia L., AMBEL); assay: as above; conditions: post-emerge, 14 days after application, rating scale 0-100
Procedure, shortened: as §3

[15] = test system: green foxtail (Setaria viridis, SETVI); assay: as above; conditions: post-emerge, 14 days after application, rating scale 0-100
Procedure, shortened: as §3

[16] = test system: ivyleaf morningglory (Ipomoea hederacea, IPOHE); assay: as above; conditions: post-emerge, 14 days after application, rating scale 0-100
Procedure, shortened: as §3

[17] = test system: johnsongrass (Sorghum halepense, SORHA); assay: as above; conditions: post-emerge, 14 days after application, rating scale 0-100
Procedure, shortened: as §3

[18] = test system: lambsquarters (Chenopodium album, CHEAL); assay: as above; conditions: post-emerge, 14 days after application, rating scale 0-100
Procedure, shortened: as §3

[19] = test system: large crabgrass (Digitaria sanguinalis, DIGSA); assay: as above; conditions: post-emerge, 14 days after application, rating scale 0-100
Procedure, shortened: as §3

[20] = test system: redroot pigweed (Amaranthus retroflexus, AMARE); assay: as above; conditions: post-emerge, 14 days after application, rating scale 0-100
Procedure, shortened: as §3

[21] = test system: sicklepod (Cassia obtusifolia, CASOB); assay: as above; conditions: post-emerge, 14 days after application, rating scale 0-100
Procedure, shortened: as §3

[22] = test system: velvetleaf (Abutilon theophrasti, ABUTH); assay: as above; conditions: post-emerge, 14 days after application, rating scale 0-100
Procedure, shortened: as §3

[23] = test system: field corn (Zea mays L., var. Dekalb 535, CORN); assay: Post-emerge test, crop safety; conditions: post-emerge, 14 days after application, rating scale 0-100
Procedure, shortened: (§4)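 Plants grown in 10 cm pots of sandy loam mix received acetone-dissolved compounds through a moving flat-fan nozzle. Doses ranged from 15 to 1000 g ai/ha. Pre-emerge pots were seeded one day earlier, post-emerge pots 8–21 days earlier. Fourteen days on, each pot was graded 0–100 for damage.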

[24] = test system: upland rice (Oryza sp., var. Tebonnet, RICE); assay: Post-emerge test, crop safety; conditions: post-emerge, 14 days after application, rating scale 0-100
Procedure, shortened: as §4

COc1c(Cl)cc(F)c(-n2c(=O)cc(C(F)(F)F)n(C)c2=O)c1NC(=O)c1cccc(F)c1F [2-41]
Pre-emerge Herbicidal Activity, phytotoxicity rating (0-100), AMARE ([1]; 63 g ai/ha): 100
Pre-emerge Herbicidal Activity, phytotoxicity rating (0-100), AMARE ([1]; 250 g ai/ha): 100
Pre-emerge Herbicidal Activity, phytotoxicity rating (0-100), ECHCG ([2]; 63 g ai/ha): 50
Pre-emerge Herbicidal Activity, phytotoxicity rating (0-100), ECHCG ([2]; 250 g ai/ha): 100
Pre-emerge Herbicidal Activity, phytotoxicity rating (0-100), AMBEL ([3]; 63 g ai/ha): 100
Pre-emerge Herbicidal Activity, phytotoxicity rating (0-100), AMBEL ([3]; 250 g ai/ha): 100
Pre-emerge Herbicidal Activity, phytotoxicity rating (0-100), SETVI ([4]; 63 g ai/ha): 95
Pre-emerge Herbicidal Activity, phytotoxicity rating (0-100), SETVI ([4]; 250 g ai/ha): 100
Pre-emerge Herbicidal Activity, phytotoxicity rating (0-100), IPOHE ([5]; 63 g ai/ha): 90
Pre-emerge Herbicidal Activity, phytotoxicity rating (0-100), IPOHE ([5]; 250 g ai/ha): 100
Pre-emerge Herbicidal Activity, phytotoxicity rating (0-100), SORHA ([6]; 63 g ai/ha): 30
Pre-emerge Herbicidal Activity, phytotoxicity rating (0-100), SORHA ([6]; 250 g ai/ha): 100
Pre-emerge Herbicidal Activity, phytotoxicity rating (0-100), CHEAL ([7]; 63 g ai/ha): 100
Pre-emerge Herbicidal Activity, phytotoxicity rating (0-100), CHEAL ([7]; 250 g ai/ha): 100
Pre-emerge Herbicidal Activity, phytotoxicity rating (0-100), DIGSA ([8]; 63 g ai/ha): 70
Pre-emerge Herbicidal Activity, phytotoxicity rating (0-100), DIGSA ([8]; 250 g ai/ha): 100
Pre-emerge Herbicidal Activity, phytotoxicity rating (0-100), CASOB ([9]; 63 g ai/ha): 80
Pre-emerge Herbicidal Activity, phytotoxicity rating (0-100), CASOB ([9]; 250 g ai/ha): 100
Pre-emerge Herbicidal Activity, phytotoxicity rating (0-100), ABUTH ([10]; 63 g ai/ha): 100
Pre-emerge Herbicidal Activity, phytotoxicity rating (0-100), ABUTH ([10]; 250 g ai/ha): 100
Pre-emerge phytotoxicity rating (0-100), crop damage, CORN ([11]; 63 g ai/ha): 35
Pre-emerge phytotoxicity rating (0-100), crop damage, CORN ([11]; 250 g ai/ha): 95
Pre-emerge phytotoxicity rating (0-100), crop damage, RICE ([12]; 63 g ai/ha): 50
Pre-emerge phytotoxicity rating (0-100), crop damage, RICE ([12]; 250 g ai/ha): 90
phytotoxicity rating ECHCG ([13]; 63 g ai/ha): 0
phytotoxicity rating ECHCG ([13]; 250 g ai/ha): 30
phytotoxicity rating AMBEL ([14]; 63 g ai/ha): 50
phytotoxicity rating AMBEL ([14]; 250 g ai/ha): 95
phytotoxicity rating SETVI ([15]; 63 g ai/ha): 20
phytotoxicity rating SETVI ([15]; 250 g ai/ha): 30
phytotoxicity rating IPOHE ([16]; 63 g ai/ha): 100
phytotoxicity rating IPOHE ([16]; 250 g ai/ha): 100
phytotoxicity rating SORHA ([17]; 63 g ai/ha): 0
phytotoxicity rating SORHA ([17]; 250 g ai/ha): 70
phytotoxicity rating CHEAL ([18]; 63 g ai/ha): 95
phytotoxicity rating CHEAL ([18]; 250 g ai/ha): 100
phytotoxicity rating DIGSA ([19]; 63 g ai/ha): 0
phytotoxicity rating DIGSA ([19]; 250 g ai/ha): 20
phytotoxicity rating AMARE ([20]; 63 g ai/ha): 95
phytotoxicity rating AMARE ([20]; 250 g ai/ha): 100
phytotoxicity rating CASOB ([21]; 63 g ai/ha): 60
phytotoxicity rating CASOB ([21]; 250 g ai/ha): 95
phytotoxicity rating ABUTH ([22]; 63 g ai/ha): 100
phytotoxicity rating ABUTH ([22]; 250 g ai/ha): 100
phytotoxicity rating CORN ([23]; 63 g ai/ha): 15
phytotoxicity rating CORN ([23]; 250 g ai/ha): 80
phytotoxicity rating RICE ([24]; 63 g ai/ha): 10
phytotoxicity rating RICE ([24]; 250 g ai/ha): 70
